# Experimental data from US20260365653A1, “IRREVERSIBLE MUTEGFR INHIBITORS” (Bayer Aktiengesellschaft, priority 2022, published 2026).
# Where “and” joins values, the source holds several entries; their conditions need not be identical. Equal entries are not always repeated.
# How the values were obtained:
# BA/F3 (insSVD) cells = test: Ba/F3-EGFR-insSVD cell survival assay (Cell Titer-Glo); assay type: cell-based; settings: Mus musculus, BaF3, 48 h, Table 3a, cell survival, Cell Titer-Glo, with 10 ng/ml EGF, without IL-3
# Outline: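 Ba/F3 cells stably expressing retroviral EGFR-insSVD or insSVD T790M, grown without IL-3 on 10 ng/ml EGF, 4000 cells/well. Compound pinned in, 48 h at 37° C. Viability by CellTiter-Glo luminescence.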
# [1] = biological target: T1, mutEGFR (D770_N771insNPG, T790) (Homo sapiens, UniProt P00533, INS770NPG/T790M); test: mutEGFR (D770_N771insNPG, T790) kinase assay; assay type: biochemical; settings: Table 2a, D770_N771insNPG
# T1 construct: exact insNPG construct not described; in-house EGFR proteins were N-terminal GST fusions from baculovirus/insect cells (borders R669-A1210 given only for WT, insSVD, insASV)
# T1 sequence (P00533 with tags, fused parts or gaps INS770NPG/T790M limits assumed): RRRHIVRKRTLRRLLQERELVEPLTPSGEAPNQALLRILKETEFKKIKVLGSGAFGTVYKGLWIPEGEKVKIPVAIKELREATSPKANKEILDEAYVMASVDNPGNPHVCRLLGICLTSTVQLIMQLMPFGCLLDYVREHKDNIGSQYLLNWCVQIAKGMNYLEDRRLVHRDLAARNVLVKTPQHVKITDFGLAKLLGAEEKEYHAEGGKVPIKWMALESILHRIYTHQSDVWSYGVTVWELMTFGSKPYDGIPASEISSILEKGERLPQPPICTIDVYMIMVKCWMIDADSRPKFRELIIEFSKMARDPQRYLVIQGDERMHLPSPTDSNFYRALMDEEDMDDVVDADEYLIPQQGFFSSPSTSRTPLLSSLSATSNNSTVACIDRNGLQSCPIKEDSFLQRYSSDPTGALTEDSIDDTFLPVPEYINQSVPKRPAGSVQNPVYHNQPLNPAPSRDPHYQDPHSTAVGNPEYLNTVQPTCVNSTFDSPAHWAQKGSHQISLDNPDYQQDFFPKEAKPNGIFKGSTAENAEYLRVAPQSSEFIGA
# Excerpt: The different EGFR proteins used in the biochemical kinase activity inhibition assays were generated inhouse by expression in insect cells using Baculo Virus system and subsequent purification as described in the following paragraphs.
# The cDNAs encoding the various protein sequences from human EGFR human (P00533) were optimized for expression in eukaryotic cells and synthesized by the GeneArt Technology at Life Technologies.
# [2] = biological target: T2, mutEGFR (D770_N771insSVD) (Homo sapiens, UniProt P00533, DUP768-770); test: Exon20-Mutant-EGFR (D770_N771insSVD) kinase assay (TR-FRET); assay type: biochemical; settings: mutEGFR (D770_N771insSVD) kinase assay IC50, Table 2a; D770_N771insSVD; 2 mM ATP
# T2 construct: GST-EGFR #3 (SVD between D770 and N771); made in house; host or cells: Sf9 insect cells (baculovirus)
# T2 sequence (P00533 with tags, fused parts or gaps DUP768-770): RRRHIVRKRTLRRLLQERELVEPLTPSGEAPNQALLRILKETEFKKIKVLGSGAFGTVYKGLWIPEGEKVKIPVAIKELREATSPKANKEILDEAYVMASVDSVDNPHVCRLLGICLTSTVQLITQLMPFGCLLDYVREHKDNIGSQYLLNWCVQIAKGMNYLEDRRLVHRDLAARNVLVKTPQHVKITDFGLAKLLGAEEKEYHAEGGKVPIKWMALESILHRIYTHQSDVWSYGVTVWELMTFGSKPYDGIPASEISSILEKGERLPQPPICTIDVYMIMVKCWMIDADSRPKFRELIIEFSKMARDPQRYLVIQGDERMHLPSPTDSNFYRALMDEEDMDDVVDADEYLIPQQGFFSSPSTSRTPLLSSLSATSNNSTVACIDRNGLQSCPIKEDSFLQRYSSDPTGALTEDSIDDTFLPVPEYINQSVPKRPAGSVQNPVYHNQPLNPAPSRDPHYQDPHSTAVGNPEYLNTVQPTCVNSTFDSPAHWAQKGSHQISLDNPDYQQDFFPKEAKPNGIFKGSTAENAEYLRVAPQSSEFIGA
SMILES,IC50 [1],IC50 [2],IC50 (BA/F3 (insSVD) cells)
"Cc1c[nH]c2nccc(-c3c(-c4ccc(C(F)(F)F)cc4)nn4c3CN(C(=O)/C=C/CN(C)C)[C@@H](C)C4)c12 [Example 254, (2E)-4-(dimethylamino)-1-[(6S)-6-methyl-3-(3-methyl-1H-pyrrolo[2,3-b]pyridin-4-yl)-2-[4-(trifluoromethyl)phenyl]-6,7-dihydropyrazolo[1,5-a]pyrazin-5(4H)-yl]but-2-en-1-one]",437 nM,36 nM,39.9 nM
"Cc1c[nH]c2nccc(-c3c(-c4ccc(C(F)(F)F)cc4)nn4c3CN(C(=O)/C=C/CN(C)C)[C@H](C)C4)c12 [Example 266, (2E)-4-(dimethylamino)-1-[(6R)-6-methyl-3-(3-methyl-1H-pyrrolo[2,3-b]pyridin-4-yl)-2-[4-(trifluoromethyl)phenyl]-6,7-dihydropyrazolo[1,5-a]pyrazin-5(4H)-yl]but-2-en-1-one]",3580 nM,462 nM,121 nM
"C=CC(=O)N1Cc2c(-c3ccncc3)c(-c3ccc(Cl)cc3F)nn2C[C@@H]1C [Example 270, 1-[(6S)-2-(4-chloro-2-fluorophenyl)-6-methyl-3-(pyridin-4-yl)-6,7-dihydropyrazolo[1,5-a]pyrazin-5(4H)-yl]prop-2-en-1-one]",1.03 nM,0.216 nM,11.5 nM
"C=CC(=O)N1Cc2c(-c3ccncc3)c(-c3ccc(Cl)cc3F)nn2C[C@H]1C [Example 271, 1-[(6R)-2-(4-chloro-2-fluorophenyl)-6-methyl-3-(pyridin-4-yl)-6,7-dihydropyrazolo[1,5-a]pyrazin-5(4H)-yl]prop-2-en-1-one]",0.351 nM,0.132 nM,225 nM
"C=CC(=O)N1CCn2nc(Nc3ccccc3)c(-c3ccncc3)c2C1 [Example 272, 1-[2-anilino-3-(pyridin-4-yl)-6,7-dihydropyrazolo[1,5-a]pyrazin-5(4H)-yl]prop-2-en-1-one]",10.4 nM,2.35 nM,87.8 nM
"CN(C)C/C=C/C(=O)N1CCn2nc(Nc3ccccc3)c(-c3ccncc3)c2C1 [Example 273, (2E)-1-[2-anilino-3-(pyridin-4-yl)-6,7-dihydropyrazolo[1,5-a]pyrazin-5(4H)-yl]-4-(dimethylamino)but-2-en-1-one]",21.6 nM,3.94 nM,531 nM
"C=CC(=O)N1Cc2c(-c3ccncc3)c(-c3ccc4sccc4c3)nn2C[C@@H]1C [Example 276, 1-[(6S)-2-(1-benzothiophen-5-yl)-6-methyl-3-(pyridin-4-yl)-6,7-dihydropyrazolo[1,5-a]pyrazin-5(4H)-yl]prop-2-en-1-one]",0.157 nM,0.0909 nM,6.22 nM
"C=CC(=O)N1Cc2c(-c3ccncc3)c(-c3ccc4sccc4c3)nn2C[C@H]1C [Example 277, 1-[(6R)-2-(1-benzothiophen-5-yl)-6-methyl-3-(pyridin-4-yl)-6,7-dihydropyrazolo[1,5-a]pyrazin-5(4H)-yl]prop-2-en-1-one]",0.153 nM,< 0.0725 nM and 0.0955 nM and 0.111 nM,2.77 nM

# Now from value to molecule, other results behind:
IC50 [1],IC50 [2],SMILES,IC50 (BA/F3 (insSVD) cells)
604 nM,78.1 nM,"C=CC(=O)N1Cc2c(-c3ccnc4[nH]cc(C)c34)c(-c3ccc(C(F)(F)F)cc3)nn2C[C@@H]1C [Example 248, 1-[(6S)-6-methyl-3-(3-methyl-1H-pyrrolo[2,3-b]pyridin-4-yl)-2-[4-(trifluoromethyl)phenyl]-6,7-dihydropyrazolo[1,5-a]pyrazin-5(4H)-yl]prop-2-en-1-one]",59.4 nM
7.23 nM,40.9 nM,"C=CC(=O)N1Cc2c(-c3ccnc4[nH]cc(C)c34)c(-c3ccc(F)cc3)nn2C[C@@H]1C [Example 251, 1-[(6S)-2-(4-fluorophenyl)-6-methyl-3-(3-methyl-1H-pyrrolo[2,3-b]pyridin-4-yl)-6,7-dihydropyrazolo[1,5-a]pyrazin-5(4H)-yl]prop-2-en-1-one]",24.3 nM
20.8 nM,69.7 nM,"Cc1c[nH]c2nccc(-c3c(-c4ccc(F)cc4)nn4c3CN(C(=O)/C=C/CN(C)C)[C@@H](C)C4)c12 [Example 257, (2E)-4-(dimethylamino)-1-[(6S)-2-(4-fluorophenyl)-6-methyl-3-(3-methyl-1H-pyrrolo[2,3-b]pyridin-4-yl)-6,7-dihydropyrazolo[1,5-a]pyrazin-5(4H)-yl]but-2-en-1-one]",30.7 nM
1280 nM,82.9 nM,"C=CC(=O)N1Cc2c(-c3ccnc4[nH]cc(C)c34)c(-c3ccc(C(F)(F)F)cc3)nn2C[C@H]1C [Example 260, 1-[(6R)-6-methyl-3-(3-methyl-1H-pyrrolo[2,3-b]pyridin-4-yl)-2-[4-(trifluoromethyl)phenyl]-6,7-dihydropyrazolo[1,5-a]pyrazin-5(4H)-yl]prop-2-en-1-one]",101 nM
24.6 nM,112 nM,"C=CC(=O)N1Cc2c(-c3ccnc4[nH]cc(C)c34)c(-c3ccc(F)cc3)nn2C[C@H]1C [Example 263, 1-[(6R)-2-(4-fluorophenyl)-6-methyl-3-(3-methyl-1H-pyrrolo[2,3-b]pyridin-4-yl)-6,7-dihydropyrazolo[1,5-a]pyrazin-5(4H)-yl]prop-2-en-1-one]",81 nM
38.2 nM,138 nM,"Cc1c[nH]c2nccc(-c3c(-c4ccc(F)cc4)nn4c3CN(C(=O)/C=C/CN(C)C)[C@H](C)C4)c12 [Example 269, (2E)-4-(dimethylamino)-1-[(6R)-2-(4-fluorophenyl)-6-methyl-3-(3-methyl-1H-pyrrolo[2,3-b]pyridin-4-yl)-6,7-dihydropyrazolo[1,5-a]pyrazin-5(4H)-yl]but-2-en-1-one]",128 nM
30.3 nM,249 nM,"C=CC(=O)N1Cc2c(-c3ccnc4[nH]cc(C)c34)c(-c3cccc(C#N)c3)nn2C[C@@H]1C [Example 283, 3-[(6S)-6-methyl-3-(3-methyl-1H-pyrrolo[2,3-b]pyridin-4-yl)-5-(prop-2-enoyl)-4,5,6,7-tetrahydropyrazolo[1,5-a]pyrazin-2-yl]benzonitrile]",37.5 nM
174 nM,1380 nM,"C=CC(=O)N1Cc2c(-c3ccnc4[nH]cc(C)c34)c(-c3cccc(C#N)c3)nn2C[C@H]1C [Example 284, 3-[(6R)-6-methyl-3-(3-methyl-1H-pyrrolo[2,3-b]pyridin-4-yl)-5-(prop-2-enoyl)-4,5,6,7-tetrahydropyrazolo[1,5-a]pyrazin-2-yl]benzonitrile]",530 nM
53.8 nM,344 nM,"Cc1c[nH]c2nccc(-c3c(-c4cccc(C#N)c4)nn4c3CN(C(=O)/C=C/CN(C)C)[C@@H](C)C4)c12 [Example 288, 3-[(6S)-5-[(2E)-4-(dimethylamino)but-2-enoyl]-6-methyl-3-(3-methyl-1H-pyrrolo[2,3-b]pyridin-4-yl)-4,5,6,7-tetrahydropyrazolo[1,5-a]pyrazin-2-yl]benzonitrile]",181 nM
348 nM,6740 nM,"Cc1c[nH]c2nccc(-c3c(-c4cccc(C#N)c4)nn4c3CN(C(=O)/C=C/CN(C)C)[C@H](C)C4)c12 [Example 289, 3-[(6R)-5-[(2E)-4-(dimethylamino)but-2-enoyl]-6-methyl-3-(3-methyl-1H-pyrrolo[2,3-b]pyridin-4-yl)-4,5,6,7-tetrahydropyrazolo[1,5-a]pyrazin-2-yl]benzonitrile]",910 nM
